According to patent US20170209413A1, “USE OF ASPARAGUSIC ACID AND DERIVATIVES THEREOF TO TREAT SYMPTOMS AND DISORDERS OF NEUROLOGICAL DISEASE” (priority 2016, published 2017):

Legend:
[1] = tested on: shaking from Parkinson disease; experiment: hand writing skill test for relief of the shaking from Parkinson disease in one patient; format: in vivo, human
Method: A patient diagnosed with Parkinson's disease and in need of treatment by the methods disclosed herein was administered compositions comprising the compounds disclosed herein. The patient had been diagnosis with Parkinson's disease by two medical doctors, the family doctor and a neurologist. They had taken L-Dopa for over a year. The patient informed their doctors that they were no longer taking L-Dopa. They took nothing for their Parkinson's Disease for almost a year before beginning to take asparagusic acid.
The test for relief of the shaking from Parkinson disease was the patient's hand writing skill. Prior to treatment with asparagusic acid the patient could not write their name. […] Normally the ability to write was diminished within 12 hours, but their varied.
The asparagus top third was cut from the stalk and weighed. 50 to 100 grams was used per treatment. The tops were steamed for a short period of time. This was typically done by placing the asparagus tops in a pie plate and covered. No water was added. After a short heating period, for example heating in a microwave for 44 seconds on high, the asparagus is “self” steamed from water in the plant and may substantially help in the formation of asparagusic acid from asparaptine. […] Excess heating will decompose asparagusic acid and will likely form a dihydro byproduct by splitting the disulfide linkage.
A preparation as described above was taken at least two hours after eating. The asparagus was consumed immediately after heating with salt and taken with simple non-caffeine liquids such as water and white wine. No further food was consumed for at least an hour. […] One exception was found. […] It is noted that raw eggs contain many sulfur compounds.

[2] = boiling for 30 minutes; rearranges to 1,2,3-trithiane-5-carboxylic acid and 1,2-dithiacylopentene; cited from earlier work

Compound	effect on shaking, lipoic acid ([1]; 250 mg tablet, same manner in regards to food consumption as Example 1)	stability during cooking [2]	time until ability to write was diminished ([1]; one Parkinson's patient, after treatment, varied) [h]	relief of the shaking from Parkinson disease (patient's hand writing skill) ([1]; one Parkinson's patient, 50 to 100 grams asparagus tops, steamed a short time (microwave 44 seconds), taken at least two hours after eating, no food for at least an hour)
O=C(O)CCCC[C@@H]1CCSS1 (racemic) [lipoic acid, reference compound]	no effect			
O=C(O)C1CSSC1 [asparagusic acid, 1,2-dithiolane-4-carboxylic acid]		not vary stable	≤ 12	could easily write their name in a flowing easy manner
